In patent US10947202B2, “Sodium ion channel inhibitors and pharmaceutically acceptable salts and polymorphs thereof and uses thereof” (SHANGHAI HAIYAN PHARMACEUTICAL TECHNOLOGY CO., LTD., priority 2017, dated 2021):

Columns and labels:
hNav1.7 = hNav1.7 (Homo sapiens, UniProt Q15858); assay: Manual patch clamp experiment of hNav1.7 channel (CHO-hNav1.7 stable cell line); type: cell-based; conditions: for inhibition at 0.1 µM: read-out: Inhibition of Nav1.7, 100 nM(%); for inhibition at 1 µM: read-out: Inhibition of Nav1.7, 1000 nM(%)
From the text: Patch voltage clamp electrophysiology allows for the direct measurement and quantification of current block of voltage-gated sodium channels (NaV's), and allows the determination of the time and voltage-dependence of block which has been interpreted as differential binding to the resting, open and inactivated states of the sodium channel to reflect the compound's inhibitory or activating effects (Hille, B., Journal of General Physiology (1977), 69: 497-515).
Representative compounds of the present disclosure were performed using a manual patch clamp experiment and the purpose of this study was to test the effect of compounds on this ion channel current on a stable cell line transfected with a specific ion channel using a manual patch clamp method, the used stable cell lines CHO-hNav1.7 and HEK-hNav1.5 were from Genionics and WuXi Apptec (Shanghai) respectively.
Manual patch clamp experimental program is as follows:
(1) Preparation of solutions and compounds: The whole cell patch clamp technique was used to record hNav1.7 and hNav1.5 currents. In the experiment, the composition of extracellular fluid (mM): HEPES: 5, NaCl: 40, KCl: CaCl2:1, MgCl2:1, CdCl2:0.1, TEA-Cl: 20. The pH was adjusted to 7.3 with NaOH and the osmotic pressure was adjusted to 310-320 mOsm with sucrose, filtered and stored at 4° C. The composition of the intracellular fluid (mM): HEPES: 10, NaCl: 10, CsOH: 5, CsF: 140, EGTA: 1. The pH was adjusted to 7.3 with CsOH and the osmotic pressure was adjusted to 280-290 mOsm with sucrose, filtered and stored at −20° C.
The positive control and the test compound were firstly dissolved in 100% DMSO (Sigma-Aldrich, D2650), configured as stock solution at a concentration (100 nM, 1000 nM).) The above stock solution was serially diluted with DMSO prior to the experiment, the solution was further diluted with extracellular solution to obtain the desired concentration of the test solution.
(2) Manual Patch Clamp Experiment: The cell suspension was added to a 35 mm petri dish and placed on an inverted microscope stage, the cells were perfused with an extracellular fluid and the flow rate was 1-2 mL/min after cell adherence. The glass microelectrode was pulled in two steps by a microelectrode puller with an inlet water resistance of 2-5 MΩ. A/D-D/A digital-analog conversion was performed by Digidata 1440 (Molecular Devices) and pCLAMP software (version 10.2, Molecular Devices) for stimulation and signal acquisition; the signal was amplified by patch clamp amplifier (Multiclamp 700B, Molecular Devices), filtering is 4 KHz.
Two different voltage stimulation procedures were used in the hNav1.7 and hNav1.5 manual patch clamp experiments.
One is the inactivation stimulation program, the clamp potential is set at V1/2 of the corresponding channel, ie about 50% of the channels are inactivated, then the voltage is applied to −120 mV for 50 ms, then depolarized to −10 mV for 20 ms leading to sodium current, and finally back to the clamp potential. This stimulation program can also be called channel state-dependent voltage stimulation program.
The other is the non-inactivation stimulation program, the clamp potential is maintained at −120 mV, voltage stimulation is given to −10 mV for 20 ms leading to sodium current, and finally back to the clamp potential. That is all channels have not experienced inactivation status, but activate directly from the resting state under the conditions of the stimulation program.
The time intervals of these two voltage stimulation program were 10 s. The inhibitory effect of the compound was calculated by the change of the current before and after dosing, the IC50 value was fitted by the Hill equation. […] The results are shown in Table 33 and Table 34, respectively.

[1] = Metabolism stability test in liver microsomes; type: in vitro ADME; conditions: human liver microsomes
Procedure: Buffer A: 1 L solution of 100 mM potassium dihydrogen phosphate containing 1 mM EDTA (Sigma, V900157-100G) was prepared.
Buffer B: 1 L solution of 100 mM dipotassium hydrogen phosphate containing 1 mM EDTA was prepared.
Buffer C: 700 mL of buffer B was taken out and titrated with buffer A to pH 7.4.
2.1 10 μl of 10 mM compound to be tested and 10 μl of 10 mM ketanserin were taken out and 190 μl of pure acetonitrile was added to each of them to prepare 500 μM compound to be tested and ketanserin, respectively.
2.2 20 μl (20 mg/mL) of liver microsomes (Corning Lot. NO. 4133007) stock solution was added to 513.4 μl of buffer C on wet ice. 0.75 mg/mL liver microsomal solution was obtained.
2.3 1.5 μl of each of the above-mentioned compound to be tested and ketanserin solution was added to 498.5 μl of liver microsomal solution (0.7 5 mg/mL) respectively on wet ice. 1.5 μM mixed solution of compound to be tested and 1.5 μM mixed solution of ketanserin were obtained.
2.4 At the time points 0, 5, 15, 30, 45, and 60 min, 30 μl of the mixed solution of compound to be tested and 30 μl of the mixed solution of ketanserin were dispensed into the reaction plate on wet ice, respectively.
2.5 5 mg reduced coenzyme II (Roche, 10621706001) was weighed and dissolved in 1 mL of buffer C. 6 mM reduced coenzyme II solution was obtained. The reduced coenzyme II solution was dispensed into the reaction plate.
2.6 Imipramine was dissolved to give a 10 mM solution. 10 μl imipramine solution was added to 100 mL of blank acetonitrile to generate the internal reference.
2.7 At 0 min, 135 μL of iced acetonitrile (Merck (Lot. 1778229518)) containing the internal reference was added to each well and then 15 μL of buffer C was added.
2.8 The reaction plate was placed into a 37° C. water bath incubator for 5 min. In the reaction plate, 15 μL of reduced coenzyme II solution was added to each well to initiate the reaction, and the time keeping was started. At the time points of 5, 15, 30, 45, and 60 min, 135 μL of iced acetonitrile containing the internal reference was added to each well to terminate the reaction.
2.9 The reaction plate was sealed with an aluminum film, placed on a vibration mixer and shaken at 500 rpm for 5 min. The plate was then centrifuged in a centrifuge at 3750 rp for 15 min.
2.10 The sample was diluted with pure water in accordance with the ratio of 1:1 and detected by LC/MS. […]
Wherein, the K value and the proportional factor were calculated by those skilled in the art according to the methods described in the prior art and contained in the instructions of the liver microsome product.

[2] = Crystal form stability on shaking in solvent or heating (XRPD); type: physicochemical; conditions: heated to 150° C.
Procedure: The reaction solution in the step 4 of Example 1 was poured into water, extracted with ethyl acetate, dried and concentrated, ethanol was added to dissolve and the solution was evaporated, 1N hydrochloric acid and ethyl acetate were added and stirred for 1-2 h, filtered, a solid product which was the crystal form III of free base was obtained, the X-ray powder diffraction pattern is shown in FIG. 11A (the 2θ angle has been marked), the DSC/TGA/DVS patterns are shown in FIGS. 11B, 11C and 11D. According to the DSC pattern, there is an inflection point around 100° C., and the sample has a melting absorption peak at 181.9° C. […] The sample was shaken in ACE and MeOH at 50° C. for 1 day, and the crystal form was unchanged.
The reaction solution in the step 4 of Example 1 was poured into water, extracted with ethyl acetate, dried and concentrated to retain a small amount of ethyl acetate, 1N hydrochloric acid was added and stirred for 1 h, filtered, the filter cake was washed with ethanol and then filtered to obtain a solid product which was the crystal form IV of free base was obtained. The X-ray powder diffraction pattern is shown in FIG. 12A (the […] has been marked), the DSC/TGA/DVS patterns are shown in FIGS. 12B, 12C and 12D. […] The sample was shaken in ACE at 50° C. for 1 day, and the crystal form was unchanged. […]

[3] = Hygroscopicity experiment (DVS); type: physicochemical
From the text: The Dynamic Vapor Sorption (DVS) curve was acquired on the DVS Intrinsic of Surface Measurement Systems.
The DVS results for crystal forms A, D, E-3 and F are shown in FIG. 1E, FIG. 4F, FIG. 7E and FIG. 8E, respectively.

Chain of hNav1.7 (Q15858 whole entry): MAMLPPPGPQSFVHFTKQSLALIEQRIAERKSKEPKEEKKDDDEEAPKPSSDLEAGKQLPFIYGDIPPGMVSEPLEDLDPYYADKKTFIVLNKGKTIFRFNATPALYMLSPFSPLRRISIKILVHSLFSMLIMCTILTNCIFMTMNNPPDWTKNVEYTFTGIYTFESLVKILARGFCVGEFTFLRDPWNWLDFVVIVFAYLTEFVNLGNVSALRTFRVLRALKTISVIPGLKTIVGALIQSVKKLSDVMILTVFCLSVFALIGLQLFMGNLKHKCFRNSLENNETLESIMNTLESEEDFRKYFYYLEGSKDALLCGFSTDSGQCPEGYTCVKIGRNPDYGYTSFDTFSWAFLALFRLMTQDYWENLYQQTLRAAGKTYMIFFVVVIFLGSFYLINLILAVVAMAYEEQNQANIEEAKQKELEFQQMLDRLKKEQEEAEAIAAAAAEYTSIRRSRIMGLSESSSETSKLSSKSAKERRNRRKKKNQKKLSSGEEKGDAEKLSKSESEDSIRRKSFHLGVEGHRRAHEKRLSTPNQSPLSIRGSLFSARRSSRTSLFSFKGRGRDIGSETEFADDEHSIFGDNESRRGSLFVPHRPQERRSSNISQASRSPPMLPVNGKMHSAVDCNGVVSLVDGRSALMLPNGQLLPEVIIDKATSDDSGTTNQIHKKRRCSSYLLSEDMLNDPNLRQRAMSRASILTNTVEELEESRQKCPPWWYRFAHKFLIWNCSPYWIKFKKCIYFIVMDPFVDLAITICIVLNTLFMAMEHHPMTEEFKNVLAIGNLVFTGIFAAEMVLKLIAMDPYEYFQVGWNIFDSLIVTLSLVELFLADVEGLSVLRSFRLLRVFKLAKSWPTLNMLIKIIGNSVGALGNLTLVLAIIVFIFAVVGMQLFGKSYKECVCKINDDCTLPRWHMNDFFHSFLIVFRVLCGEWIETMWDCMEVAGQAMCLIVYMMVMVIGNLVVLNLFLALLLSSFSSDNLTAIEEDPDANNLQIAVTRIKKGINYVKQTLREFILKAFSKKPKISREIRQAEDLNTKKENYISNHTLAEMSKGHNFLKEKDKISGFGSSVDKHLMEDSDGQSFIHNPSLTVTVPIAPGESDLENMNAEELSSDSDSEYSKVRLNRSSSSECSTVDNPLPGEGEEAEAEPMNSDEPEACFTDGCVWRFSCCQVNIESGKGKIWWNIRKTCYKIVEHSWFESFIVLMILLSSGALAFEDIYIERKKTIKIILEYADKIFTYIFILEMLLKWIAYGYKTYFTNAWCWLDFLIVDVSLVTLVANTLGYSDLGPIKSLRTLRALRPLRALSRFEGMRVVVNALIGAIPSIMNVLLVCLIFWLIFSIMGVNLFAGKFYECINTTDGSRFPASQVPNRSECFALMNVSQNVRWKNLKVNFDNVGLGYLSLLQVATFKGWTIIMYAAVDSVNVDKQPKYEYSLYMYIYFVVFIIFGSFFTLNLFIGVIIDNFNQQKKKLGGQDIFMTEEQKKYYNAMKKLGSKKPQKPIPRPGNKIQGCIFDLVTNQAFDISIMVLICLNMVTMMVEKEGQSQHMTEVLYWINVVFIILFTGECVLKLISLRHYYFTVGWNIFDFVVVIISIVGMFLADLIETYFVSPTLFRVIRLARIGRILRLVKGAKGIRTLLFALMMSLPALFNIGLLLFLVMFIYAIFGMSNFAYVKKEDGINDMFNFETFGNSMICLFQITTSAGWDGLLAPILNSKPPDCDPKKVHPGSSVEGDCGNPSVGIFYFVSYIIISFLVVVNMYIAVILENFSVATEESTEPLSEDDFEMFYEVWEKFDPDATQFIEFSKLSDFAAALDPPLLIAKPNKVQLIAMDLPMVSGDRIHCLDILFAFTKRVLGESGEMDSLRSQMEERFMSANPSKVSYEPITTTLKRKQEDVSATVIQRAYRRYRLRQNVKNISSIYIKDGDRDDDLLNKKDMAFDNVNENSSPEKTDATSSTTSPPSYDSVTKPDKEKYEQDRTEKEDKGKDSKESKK

Structure (SMILES)	inhibition at 1 µM (hNav1.7) [%]	crystal form after heating [2]	hygroscopicity (DVS curve) [3]	further results
O=C(NS(=O)(=O)C1CC1)c1cc(C2CC2)c(CN2CCN(Cc3cc(Cl)cc(Cl)c3)CC2)cc1F [C1]	64.8	–	–	inhibition at 0.1 µM (hNav1.7): 49.2%
CS(=O)(=O)NC(=O)c1cc(C2CC2)c(CN2CCN(Cc3ccc(Cl)c(Cl)c3)CC2)cc1F [C2]	64	–	–	inhibition at 0.1 µM (hNav1.7): 52%
O=C(NS(=O)(=O)C1CC1)c1cc(Cl)c(CN2CCN(Cc3ccc(Cl)cc3)CC2)cc1F [C6]	67.2	–	–	–
CS(=O)(=O)NC(=O)c1cc(Cl)c(CN2CCN(c3ccc(C4CC4)c(Cl)c3)CC2)cc1F [C12, reference compound]	–	–	–	Clearance ratio [1]: 78.28 mL/min/kg
Cc1cc(N2CCN(Cc3cc(F)c(C(=O)NS(C)(=O)=O)cc3Cl)CC2)ccc1Cl [C13, reference compound]	–	–	–	Clearance ratio [1]: 138.91 mL/min/kg
Cc1cc(N2CCN(Cc3cc(F)c(C(=O)NS(=O)(=O)C4CC4)cc3Cl)CC2)ccc1Cl [crystal form V, 5-chloro-4-((4-(4-chloro-3-methylphenyl)piperazin-1-yl)methyl)-N-(cyclopropylsulfonyl)-2-fluorobenzamide]	–	converted into crystal form I	slightly hygroscopic	–
Cc1cc(N2CCN(Cc3cc(F)c(C(=O)NS(=O)(=O)C4CC4)cc3Cl)CC2)ccc1Cl [crystal form VI, 5-chloro-4-((4-(4-chloro-3-methylphenyl)piperazin-1-yl)methyl)-N-(cyclopropylsulfonyl)-2-fluorobenzamide]	–	converted into crystal form I	slightly hygroscopic	–
Cc1cc(N2CCN(Cc3cc(F)c(C(=O)NS(=O)(=O)C4CC4)cc3Cl)CC2)ccc1Cl [crystal form VII, 5-chloro-4-((4-(4-chloro-3-methylphenyl)piperazin-1-yl)methyl)-N-(cyclopropylsulfonyl)-2-fluorobenzamide]	–	converted into crystal form I	slightly hygroscopic	–
